Results as given in ChEMBL document CHEMBL6074632, “Next-generation EGFR tyrosine kinase inhibitors to overcome C797S mutation in non-small cell lung cancer (2019-2024)” (RSC Med Chem, 2024).

What was measured:
[1] = PROTAC activity at CRBN/EGFR L858R/T790M double mutant in human HCC827 cells assessed as induction of EGFR degradation; assay type: cell-based
NCI-H1975 [2] = assay: Antitumor activity against human NCI-H1975 cells xenografted in mouse model assessed as tumor growth inhibition at 40 mg/kg, po relative to control; assay type: functional; settings: read-out: TGI
BaF3 [3] = assay: Antiproliferative activity against mouse BaF3 cells harboring EGFR L858R/T790M/C797S mutant assessed as growth inhibition incubated for 72 hrs by CellTiter-Glo assay; assay type: functional, cell-based; settings: BaF3, 72 h
[4] = molecular target: Epidermal growth factor receptor (Homo sapiens, UniProt P00533, C797S/L858R/T790M); assay: Inhibition of EGFR L858R/T790M/C797S mutant (unknown origin)
BaF3 [5] = assay: Antiproliferative activity against mouse BaF3 cells harboring EGFR C797S/T790M/del19 mutant assessed as growth inhibition incubated for 72 hrs by CellTiter-Glo assay; assay type: functional, cell-based; settings: BaF3, 72 h
NCI-H1975 [6] = assay: Antitumor activity against human NCI-H1975 cells xenografted in mouse model assessed as tumor growth inhibition at 80 mg/kg, po relative to control; assay type: functional; settings: read-out: TGI
[7] = Antiproliferative activity against human NCI-H1975 cells harboring EGFR L858R/T790M/C797S […] mutant assessed as inhibition of cell growth; assay type: functional, cell-based
[8] = Oral bioavailability in rat; settings: in vivo
[9] = Antiproliferative activity against human NCI-H1975 cells harboring EGFR L858R/T790M double mutant assessed as inhibition of cell growth incubated for 72 hrs by CellTiter-Glo assay; assay type: functional, cell-based; settings: NCI-H1975, 72 h
[10] = molecular target: von Hippel-Lindau disease tumor suppressor/Epidermal growth factor receptor (Homo sapiens, UniProt P00533+P40337, L858R); assay: PROTAC activity at VHL/EGFR L858R mutant in human NCI-H3255 cells assessed as induction of EGFR degradation incubated for 24 hrs by immunoblotting analysis; assay type: cell-based
[11] = Inhibition of EGFR L858R/T790M double mutant (unknown origin); parameters: species or system Homo sapiens
[12] = Antiproliferative activity against mouse BaF3 cells harboring EGFR L858R/T790M double mutant assessed as inhibition of cell growth
[13] = molecular target: Epidermal growth factor receptor (Homo sapiens, UniProt P00533); assay: Inhibition of wild type EGFR (unknown origin)
[14] = molecular target: Epidermal growth factor receptor (Homo sapiens, UniProt P00533, C797S/EX19DEL/T790M); assay: Inhibition of EGFR C797S/T790M/Del19 mutant (unknown origin)
[15] = Intrinsic clearance in human liver microsomes; assay type: ADME, Microsome
[16] = Intrinsic clearance in human hepatocytes; assay type: ADME, cell-based, Hepatocyte
[17] = Intrinsic clearance in rat liver microsomes; assay type: ADME, Microsome

Chain of Epidermal growth factor receptor (Homo sapiens, UniProt P00533, C797S/L858R/T790M) (P00533 25-1210 T790M/C797S/L858R limits assumed): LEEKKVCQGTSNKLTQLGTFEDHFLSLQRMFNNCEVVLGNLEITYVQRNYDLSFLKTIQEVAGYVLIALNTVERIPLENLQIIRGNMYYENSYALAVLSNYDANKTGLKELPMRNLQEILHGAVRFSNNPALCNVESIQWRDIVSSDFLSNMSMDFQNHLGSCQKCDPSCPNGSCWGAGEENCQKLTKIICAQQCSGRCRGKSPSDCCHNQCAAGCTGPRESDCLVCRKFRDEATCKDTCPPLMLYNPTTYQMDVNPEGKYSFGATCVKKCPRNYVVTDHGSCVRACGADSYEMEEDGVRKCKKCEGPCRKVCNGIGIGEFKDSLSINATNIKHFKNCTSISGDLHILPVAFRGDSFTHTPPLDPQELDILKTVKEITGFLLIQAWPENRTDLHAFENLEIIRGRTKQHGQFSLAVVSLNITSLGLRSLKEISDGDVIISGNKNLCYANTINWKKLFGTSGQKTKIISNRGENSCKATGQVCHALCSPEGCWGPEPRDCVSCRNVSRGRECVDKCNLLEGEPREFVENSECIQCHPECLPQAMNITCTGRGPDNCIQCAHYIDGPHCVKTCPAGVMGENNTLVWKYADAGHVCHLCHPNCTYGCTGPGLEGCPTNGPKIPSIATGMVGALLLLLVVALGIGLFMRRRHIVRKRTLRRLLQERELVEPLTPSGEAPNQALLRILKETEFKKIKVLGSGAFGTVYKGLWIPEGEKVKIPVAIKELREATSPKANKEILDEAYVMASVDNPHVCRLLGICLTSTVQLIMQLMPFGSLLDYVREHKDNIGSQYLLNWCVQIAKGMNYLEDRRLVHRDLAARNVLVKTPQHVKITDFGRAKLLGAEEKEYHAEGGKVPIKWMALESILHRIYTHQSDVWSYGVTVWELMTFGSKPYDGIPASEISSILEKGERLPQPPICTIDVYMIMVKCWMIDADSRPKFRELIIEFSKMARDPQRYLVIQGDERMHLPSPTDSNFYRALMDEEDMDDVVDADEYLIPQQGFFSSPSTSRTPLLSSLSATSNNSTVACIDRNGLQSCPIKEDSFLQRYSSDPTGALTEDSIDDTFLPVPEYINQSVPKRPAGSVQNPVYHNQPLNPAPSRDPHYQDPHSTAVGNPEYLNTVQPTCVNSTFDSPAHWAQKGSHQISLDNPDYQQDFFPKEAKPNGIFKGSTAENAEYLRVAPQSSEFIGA
Chain of Epidermal growth factor receptor (Homo sapiens, UniProt P00533) (P00533 whole entry): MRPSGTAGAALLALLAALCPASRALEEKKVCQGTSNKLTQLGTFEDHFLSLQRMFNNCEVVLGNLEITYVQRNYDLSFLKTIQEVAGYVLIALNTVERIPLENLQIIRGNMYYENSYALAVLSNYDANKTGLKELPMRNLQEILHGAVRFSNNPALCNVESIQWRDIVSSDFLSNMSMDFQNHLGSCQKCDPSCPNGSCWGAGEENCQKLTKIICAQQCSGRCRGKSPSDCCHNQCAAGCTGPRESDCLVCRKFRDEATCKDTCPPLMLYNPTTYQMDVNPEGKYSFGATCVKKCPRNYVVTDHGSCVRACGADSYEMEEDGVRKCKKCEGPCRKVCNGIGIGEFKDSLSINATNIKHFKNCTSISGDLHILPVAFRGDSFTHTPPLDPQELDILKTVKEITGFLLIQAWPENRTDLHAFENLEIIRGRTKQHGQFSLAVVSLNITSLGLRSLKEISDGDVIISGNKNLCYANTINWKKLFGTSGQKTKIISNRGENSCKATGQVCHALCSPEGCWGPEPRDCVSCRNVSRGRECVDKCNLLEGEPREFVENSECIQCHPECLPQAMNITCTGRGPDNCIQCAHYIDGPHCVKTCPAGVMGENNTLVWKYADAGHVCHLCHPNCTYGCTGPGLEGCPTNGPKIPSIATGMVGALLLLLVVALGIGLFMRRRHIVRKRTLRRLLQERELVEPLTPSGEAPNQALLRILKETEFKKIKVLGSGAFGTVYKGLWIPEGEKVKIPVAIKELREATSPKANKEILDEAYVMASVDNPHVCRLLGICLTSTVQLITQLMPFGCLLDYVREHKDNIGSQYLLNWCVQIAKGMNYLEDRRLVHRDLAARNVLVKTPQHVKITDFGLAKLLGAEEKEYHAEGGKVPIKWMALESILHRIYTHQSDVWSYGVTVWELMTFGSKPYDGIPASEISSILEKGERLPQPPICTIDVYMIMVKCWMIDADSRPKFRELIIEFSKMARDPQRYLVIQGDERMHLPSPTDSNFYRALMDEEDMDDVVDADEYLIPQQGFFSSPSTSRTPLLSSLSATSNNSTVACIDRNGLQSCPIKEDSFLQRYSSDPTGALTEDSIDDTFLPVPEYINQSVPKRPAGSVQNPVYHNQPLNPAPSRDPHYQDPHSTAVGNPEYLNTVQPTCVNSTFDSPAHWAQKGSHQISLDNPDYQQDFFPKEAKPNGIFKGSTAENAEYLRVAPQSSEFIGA
Chain of Epidermal growth factor receptor (Homo sapiens, UniProt P00533, C797S/EX19DEL/T790M) (P00533 whole entry, looked up, stated change not applied): as the sequence (P00533 whole entry) above
Chain of von Hippel-Lindau disease tumor suppressor/Epidermal growth factor receptor (P00533 25-1210 L858R limits assumed, stated change not applied): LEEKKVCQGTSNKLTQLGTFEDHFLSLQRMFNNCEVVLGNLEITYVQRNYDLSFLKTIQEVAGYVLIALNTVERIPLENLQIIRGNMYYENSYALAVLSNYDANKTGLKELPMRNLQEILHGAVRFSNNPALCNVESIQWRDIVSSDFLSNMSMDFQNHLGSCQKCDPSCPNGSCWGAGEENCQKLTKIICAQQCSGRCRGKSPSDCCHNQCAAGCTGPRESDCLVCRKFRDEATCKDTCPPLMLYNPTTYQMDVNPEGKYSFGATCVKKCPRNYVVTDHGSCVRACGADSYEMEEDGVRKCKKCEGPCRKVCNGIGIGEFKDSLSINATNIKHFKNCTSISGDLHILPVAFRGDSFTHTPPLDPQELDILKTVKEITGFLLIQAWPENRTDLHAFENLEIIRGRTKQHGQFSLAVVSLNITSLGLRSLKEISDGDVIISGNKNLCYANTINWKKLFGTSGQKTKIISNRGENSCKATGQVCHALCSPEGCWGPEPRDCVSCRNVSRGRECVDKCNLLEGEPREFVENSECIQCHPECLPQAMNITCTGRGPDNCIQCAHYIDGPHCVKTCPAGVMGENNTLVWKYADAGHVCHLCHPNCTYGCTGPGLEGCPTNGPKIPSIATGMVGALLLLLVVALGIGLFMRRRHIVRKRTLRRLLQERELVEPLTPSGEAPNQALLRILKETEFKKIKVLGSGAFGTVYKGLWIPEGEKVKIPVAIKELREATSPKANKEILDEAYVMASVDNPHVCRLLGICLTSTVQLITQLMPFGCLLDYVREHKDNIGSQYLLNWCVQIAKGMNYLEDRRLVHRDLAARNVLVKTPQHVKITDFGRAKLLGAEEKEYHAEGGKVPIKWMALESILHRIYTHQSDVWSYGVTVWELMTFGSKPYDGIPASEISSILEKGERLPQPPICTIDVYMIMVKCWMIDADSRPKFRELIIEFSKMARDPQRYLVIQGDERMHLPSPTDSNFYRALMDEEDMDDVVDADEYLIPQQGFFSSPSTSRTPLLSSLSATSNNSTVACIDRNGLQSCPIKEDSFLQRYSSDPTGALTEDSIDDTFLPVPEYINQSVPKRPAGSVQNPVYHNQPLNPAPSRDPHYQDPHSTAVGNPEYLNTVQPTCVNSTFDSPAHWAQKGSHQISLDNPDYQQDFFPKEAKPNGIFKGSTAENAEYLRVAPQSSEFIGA
Chain of von Hippel-Lindau disease tumor suppressor/Epidermal growth factor receptor (P40337 whole entry, stated change not applied): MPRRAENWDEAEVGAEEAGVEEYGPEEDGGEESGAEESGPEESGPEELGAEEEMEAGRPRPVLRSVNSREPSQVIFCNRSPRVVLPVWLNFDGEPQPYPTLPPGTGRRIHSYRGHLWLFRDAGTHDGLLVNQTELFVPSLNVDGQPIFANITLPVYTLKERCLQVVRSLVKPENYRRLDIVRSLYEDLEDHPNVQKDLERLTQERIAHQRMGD

COc1cc2ncnc(Nc3ccc(F)c(Cl)c3)c2cc1OCCCN1CCN(CCC(=O)NCCCCCCCCOc2cccc3c2C(=O)N(C2CCC(=O)NC2=O)C3=O)CC1 (centres undefined)
DC50 [1]: 5 nM

[2H]C([2H])([2H])c1cc(Nc2ncc(Br)c(Nc3ccccc3S(=O)(=O)C3CC3)n2)ccc1N1CCN(C([2H])([2H])[2H])CC1
inhibition in vivo at 40 mg/kg (NCI-H1975 [2]): 75.1% | IC50 (BaF3 [3]): 16 nM | IC50 [4]: 0.09 nM | IC50 (BaF3 [5]): 12 nM

Cc1cc(Nc2ncc(Br)c(Nc3ccccc3S(=O)(=O)C3CC3)n2)ccc1N1CCN(C)CC1
inhibition in vivo at 80 mg/kg (NCI-H1975 [6]): 73.2%

Oc1ccc(Br)cc1-c1nc(NCc2ncccn2)c2ccccc2n1
IC50 [4]: 440 nM | IC50 [7]: 12600 nM

CC(C)c1cnc(N2CC(CS(C)(=O)=O)C2)c2cnc(Nc3ccnc(N4CC[C@@H](O)[C@@](C)(F)C4)n3)cc12
bioavailability [8]: 2% | IC50 [9]: 4.8 nM

COc1cc(N2CCN(CCCCCCCC(=O)N[C@H](C(=O)N3C[C@H](O)C[C@H]3C(=O)N[C@@H](C)c3ccc(-c4scnc4C)cc3)C(C)(C)C)CC2)ccc1Nc1ncc(Cl)c(Nc2ccccc2P(C)(C)=O)n1
DC50 [10]: 8 nM

CN1CCN(c2ccc(Nc3ncc(Cl)c(Nc4ccccc4P(C)(C)=O)n3)cc2Br)CC1
IC50 (BaF3 [3]): 120 nM | IC50 (BaF3 [5]): 90 nM

O=C(Nc1nccs1)C(c1cc(F)ccc1O)N1Cc2ccccc2C1=O (centres undefined)
IC50 [11]: 3 nM

O=C1CCC(N2C(=O)c3cccc(NCCOCCOCCOCCN4CCN(c5ccc(-c6ccc7c(c6)C(=O)N(C(C(=O)Nc6nccs6)c6ccccc6)C7)cn5)CC4)c3C2=O)C(=O)N1 (centres undefined)
IC50 [12]: 96 nM

Cn1cnc(Nc2nc(-c3ccccc3O)nc3ccccc23)c1
IC50 [13]: > 50000 nM | IC50 [14]: 3.38 nM

COc1cc(N2CCC(N3CCN(C)CC3)CC2)c(C)cc1Nc1ncc(Br)c(Nc2ccc3nccnc3c2P(C)(C)=O)n1
IC50 (BaF3 [5]): 26.8 nM

N#Cc1ccc(O)c(-c2nc(NCc3ncccn3)c3ccccc3n2)c1
IC50 [7]: 1200 nM

CO[C@@H]1CCN(c2nccc(Nc3cc4c(C(C)C)ccc(N5C[C@H](CS(C)(=O)=O)[C@H]5C)c4cn3)n2)C[C@@H]1F [TIGOZERTINIB]
bioavailability [8]: 48% | IC50 [9]: 1.1 nM

COc1cc2c(Nc3ccc(NC(=O)C(c4cc(F)ccc4F)N4Cc5ccccc5C4=O)cc3F)ncnc2cc1OCC1CCN(C)CC1 (centres undefined)
IC50 [4]: 2.3 nM

Oc1ccccc1-c1nc(NCN2CCOCC2)c2ccccc2n1
IC50 [13]: 37100 nM | IC50 [14]: 1730 nM

CC(C)c1ccc(N2CC(CS(C)(=O)=O)C2)c2cnc(Nc3ccnc(N4CC[C@@H](O)[C@@](C)(F)C4)n3)cc12
bioavailability [8]: 85% | IC50 [9]: 2.7 nM

Oc1ccccc1-c1nc(NCc2c[nH]cn2)c2ccccc2n1
IC50 [13]: > 50000 nM | IC50 [14]: 4.84 nM

CC(C)c1ccc(N2C[C@H](CS(C)(=O)=O)[C@H]2C)c2cnc(Nc3ccnc(N4CC[C@@H](O)[C@@](C)(F)C4)n3)cc12
CLint [15]: 7.2 µL/min/mg | bioavailability [8]: 50% | CLint [16]: 41 µL/min/1e6 cells | CLint [17]: 43 µL/min/mg | IC50 [9]: 1 nM

CN1CCC(c2ccc(-c3ccc4c(c3)C(=O)N(C(C(=O)Nc3nccs3)c3cc(F)ccc3O)C4)cc2)CC1 (centres undefined)
IC50 [11]: 0.063 nM
